Results as given in ChEMBL document CHEMBL3856233, “Identification of (R)-(2-Chloro-3-(trifluoromethyl)phenyl)(1-(5-fluoropyridin-2-yl)-4-methyl-6,7-dihydro-1H-imidazo[4,5-c]pyridin-5(4H)-yl)methanone (JNJ 54166060), a Small Molecule Antagonist of the P2X7 receptor” (J Med Chem, 2016).
≈ marks a conversion by molar mass, not a printed value.

How the values were obtained:
P2X purinoceptor 7 [1] = biological target: T1, P2X purinoceptor 7 (Mus musculus, UniProt Q9Z1M0); assay: Antagonist activity at recombinant mouse P2X7 receptor expressed in human 1321N1 cells assessed as inhibition of Bz-ATP-induced Ca2+ flux preincubated for 30 mins followed by agonist addition measured after 180 sec by calcium-4 dye based FLIPR assay; type: cell-based
T1 sequence (Q9Z1M0 whole entry): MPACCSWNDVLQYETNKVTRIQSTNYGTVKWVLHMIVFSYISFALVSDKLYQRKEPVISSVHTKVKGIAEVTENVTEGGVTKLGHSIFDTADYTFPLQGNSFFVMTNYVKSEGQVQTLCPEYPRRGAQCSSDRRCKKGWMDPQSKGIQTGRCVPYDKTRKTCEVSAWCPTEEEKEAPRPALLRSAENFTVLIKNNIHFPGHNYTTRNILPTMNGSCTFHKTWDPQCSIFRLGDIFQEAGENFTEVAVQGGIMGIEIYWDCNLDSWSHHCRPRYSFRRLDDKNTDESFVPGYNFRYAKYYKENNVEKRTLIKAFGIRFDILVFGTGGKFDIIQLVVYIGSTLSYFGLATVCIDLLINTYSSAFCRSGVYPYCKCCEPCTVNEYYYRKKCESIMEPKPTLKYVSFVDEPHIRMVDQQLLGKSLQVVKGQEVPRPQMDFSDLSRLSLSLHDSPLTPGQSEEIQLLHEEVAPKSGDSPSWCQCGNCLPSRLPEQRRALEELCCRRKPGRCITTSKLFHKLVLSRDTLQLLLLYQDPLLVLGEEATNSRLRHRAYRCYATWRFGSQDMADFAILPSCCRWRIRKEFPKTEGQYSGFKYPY

[2] = Protein binding in human plasma at 1 uM after 6 hrs by LC/MS/MS based equilibrium dialysis method; type: ADME, cell-free; settings: read-out: PPB (converted)
[3] = Protein binding in rat plasma at 1 uM after 6 hrs by LC/MS/MS based equilibrium dialysis method; type: ADME, cell-free; settings: read-out: PPB (converted)
Cytochrome P450 2D6 = Cytochrome P450 2D6 (Homo sapiens, UniProt P10635); assay: Inhibition of CYP2D6 in human liver microsomes using dextromethorphan as substrate after 15 mins by LC/MS/MS analysis; type: ADME
Cytochrome P450 2D6, sequence (P10635 whole entry): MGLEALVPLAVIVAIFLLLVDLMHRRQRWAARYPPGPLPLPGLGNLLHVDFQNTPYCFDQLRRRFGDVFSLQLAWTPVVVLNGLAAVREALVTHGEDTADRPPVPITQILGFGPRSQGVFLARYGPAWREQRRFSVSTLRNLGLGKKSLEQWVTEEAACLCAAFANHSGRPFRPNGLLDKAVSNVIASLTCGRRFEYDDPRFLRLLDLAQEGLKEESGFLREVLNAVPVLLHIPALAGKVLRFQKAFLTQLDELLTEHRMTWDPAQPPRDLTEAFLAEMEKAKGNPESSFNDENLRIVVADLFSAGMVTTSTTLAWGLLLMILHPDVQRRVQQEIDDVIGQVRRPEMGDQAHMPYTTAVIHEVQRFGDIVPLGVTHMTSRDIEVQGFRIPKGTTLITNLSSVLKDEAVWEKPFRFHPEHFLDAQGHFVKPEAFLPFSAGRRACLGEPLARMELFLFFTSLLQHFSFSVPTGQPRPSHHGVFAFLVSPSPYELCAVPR

Cytochrome P450 2C19 = Cytochrome P450 2C19 (Homo sapiens, UniProt P33261); assay: Inhibition of CYP2C19 in human liver microsomes using S-mephenytoin as substrate after 15 mins by LC/MS/MS analysis; type: ADME
Cytochrome P450 2C19, sequence (P33261 whole entry): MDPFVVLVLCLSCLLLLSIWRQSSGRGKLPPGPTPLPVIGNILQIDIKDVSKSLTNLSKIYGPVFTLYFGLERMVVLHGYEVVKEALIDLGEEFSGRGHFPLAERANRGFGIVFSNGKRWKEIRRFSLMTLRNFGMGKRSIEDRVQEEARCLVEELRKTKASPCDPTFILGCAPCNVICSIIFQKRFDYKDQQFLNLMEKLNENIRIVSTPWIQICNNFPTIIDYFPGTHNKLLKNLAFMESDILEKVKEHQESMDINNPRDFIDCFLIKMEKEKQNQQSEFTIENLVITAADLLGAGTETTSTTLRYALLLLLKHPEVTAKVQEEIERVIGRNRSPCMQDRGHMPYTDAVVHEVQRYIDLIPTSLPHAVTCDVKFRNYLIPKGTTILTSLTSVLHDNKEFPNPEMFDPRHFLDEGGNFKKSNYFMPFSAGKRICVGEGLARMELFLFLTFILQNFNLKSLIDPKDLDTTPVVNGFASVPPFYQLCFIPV

Cytochrome P450 1A2 = biological target: T2, Cytochrome P450 1A2 (Homo sapiens, UniProt P05177); assay: Inhibition of CYP1A2 in human liver microsomes using phenacetin as substrate after 15 mins by LC/MS/MS analysis; type: ADME
T2 sequence (P05177 whole entry): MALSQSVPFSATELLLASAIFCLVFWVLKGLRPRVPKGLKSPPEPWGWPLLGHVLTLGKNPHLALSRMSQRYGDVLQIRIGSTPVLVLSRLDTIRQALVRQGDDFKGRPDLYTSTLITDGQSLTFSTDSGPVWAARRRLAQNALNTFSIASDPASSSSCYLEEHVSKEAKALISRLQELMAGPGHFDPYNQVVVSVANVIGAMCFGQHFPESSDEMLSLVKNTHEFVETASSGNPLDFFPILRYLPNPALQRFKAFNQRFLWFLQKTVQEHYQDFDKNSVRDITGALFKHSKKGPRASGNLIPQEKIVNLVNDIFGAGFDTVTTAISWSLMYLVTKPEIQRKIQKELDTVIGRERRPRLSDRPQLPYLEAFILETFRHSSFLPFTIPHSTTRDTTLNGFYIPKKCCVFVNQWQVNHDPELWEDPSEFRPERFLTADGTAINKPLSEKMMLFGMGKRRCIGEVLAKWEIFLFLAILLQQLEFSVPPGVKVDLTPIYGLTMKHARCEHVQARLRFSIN

Cytochrome P450 2C8 = biological target: T3, Cytochrome P450 2C8 (Homo sapiens, UniProt P10632); assay: Inhibition of CYP2C8 in human liver microsomes using paclitaxel as substrate after 15 mins by LC/MS/MS analysis; type: ADME
T3 sequence (P10632 whole entry): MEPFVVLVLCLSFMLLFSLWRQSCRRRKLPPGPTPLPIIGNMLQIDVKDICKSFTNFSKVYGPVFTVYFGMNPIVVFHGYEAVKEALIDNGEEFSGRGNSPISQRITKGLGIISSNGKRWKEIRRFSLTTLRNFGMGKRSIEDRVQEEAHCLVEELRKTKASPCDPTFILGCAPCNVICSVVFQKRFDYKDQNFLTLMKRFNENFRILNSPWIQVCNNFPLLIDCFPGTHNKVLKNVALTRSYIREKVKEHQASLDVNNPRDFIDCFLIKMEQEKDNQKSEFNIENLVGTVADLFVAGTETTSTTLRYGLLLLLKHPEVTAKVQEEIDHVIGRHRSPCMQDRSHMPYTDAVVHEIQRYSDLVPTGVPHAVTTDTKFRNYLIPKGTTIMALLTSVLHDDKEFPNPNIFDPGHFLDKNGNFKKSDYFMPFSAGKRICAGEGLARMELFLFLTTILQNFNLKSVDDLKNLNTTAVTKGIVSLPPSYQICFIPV

Cytochrome P450 2C9 = Cytochrome P450 2C9 (Homo sapiens, UniProt P11712); assay: Inhibition of CYP2C9 in human liver microsomes using diclofenac as substrate after 15 mins by LC/MS/MS analysis; type: ADME
Cytochrome P450 2C9, sequence (P11712 whole entry): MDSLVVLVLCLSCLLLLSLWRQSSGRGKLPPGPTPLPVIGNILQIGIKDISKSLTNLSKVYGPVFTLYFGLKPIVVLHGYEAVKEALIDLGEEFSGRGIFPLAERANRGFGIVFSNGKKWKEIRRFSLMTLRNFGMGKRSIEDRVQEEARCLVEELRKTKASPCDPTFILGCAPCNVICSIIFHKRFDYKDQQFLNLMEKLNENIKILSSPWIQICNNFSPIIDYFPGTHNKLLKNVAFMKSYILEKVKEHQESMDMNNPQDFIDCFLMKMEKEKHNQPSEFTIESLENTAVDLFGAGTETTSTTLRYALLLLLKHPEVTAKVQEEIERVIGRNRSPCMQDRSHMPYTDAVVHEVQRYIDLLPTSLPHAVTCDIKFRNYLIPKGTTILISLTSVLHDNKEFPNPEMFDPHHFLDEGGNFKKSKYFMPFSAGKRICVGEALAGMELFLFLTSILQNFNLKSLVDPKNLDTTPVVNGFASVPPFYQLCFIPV

[4] = biological target: Voltage-gated inwardly rectifying potassium channel KCNH2 (Homo sapiens, UniProt Q12809); assay: Displacement of [3H]astemizole from human ERG expressed in HEK293 cells by competitive binding assay; type: cell-based
Voltage-gated inwardly rectifying potassium channel KCNH2, sequence (Q12809 whole entry): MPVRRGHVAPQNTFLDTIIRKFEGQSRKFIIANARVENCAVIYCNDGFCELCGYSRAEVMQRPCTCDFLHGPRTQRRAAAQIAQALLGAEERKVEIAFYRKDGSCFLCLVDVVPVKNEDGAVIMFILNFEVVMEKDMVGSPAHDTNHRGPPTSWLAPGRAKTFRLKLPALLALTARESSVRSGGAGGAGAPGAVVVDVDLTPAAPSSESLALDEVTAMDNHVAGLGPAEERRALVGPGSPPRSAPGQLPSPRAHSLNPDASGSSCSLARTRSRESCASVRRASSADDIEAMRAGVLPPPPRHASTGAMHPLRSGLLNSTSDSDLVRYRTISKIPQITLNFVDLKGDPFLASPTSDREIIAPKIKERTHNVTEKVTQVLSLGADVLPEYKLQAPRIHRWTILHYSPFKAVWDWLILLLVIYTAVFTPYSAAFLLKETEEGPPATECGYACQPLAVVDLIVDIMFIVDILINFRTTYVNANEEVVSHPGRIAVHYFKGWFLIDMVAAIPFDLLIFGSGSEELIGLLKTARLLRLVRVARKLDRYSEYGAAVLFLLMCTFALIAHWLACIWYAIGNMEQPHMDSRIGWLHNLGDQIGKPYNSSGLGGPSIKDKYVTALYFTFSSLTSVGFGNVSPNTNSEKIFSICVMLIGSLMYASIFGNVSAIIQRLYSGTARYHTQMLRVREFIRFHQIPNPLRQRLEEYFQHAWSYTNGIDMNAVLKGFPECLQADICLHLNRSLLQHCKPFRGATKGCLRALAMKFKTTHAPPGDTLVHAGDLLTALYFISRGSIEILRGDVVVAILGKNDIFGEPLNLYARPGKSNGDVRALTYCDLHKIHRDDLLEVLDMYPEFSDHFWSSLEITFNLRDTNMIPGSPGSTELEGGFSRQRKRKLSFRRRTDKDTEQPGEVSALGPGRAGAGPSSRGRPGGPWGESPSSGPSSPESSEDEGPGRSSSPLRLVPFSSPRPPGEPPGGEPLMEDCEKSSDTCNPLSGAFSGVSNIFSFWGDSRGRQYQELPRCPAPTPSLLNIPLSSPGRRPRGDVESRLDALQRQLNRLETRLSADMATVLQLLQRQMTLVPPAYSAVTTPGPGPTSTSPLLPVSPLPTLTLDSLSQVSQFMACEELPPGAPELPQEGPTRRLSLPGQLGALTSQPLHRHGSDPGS

[5] = Solubility of compound in phosphate buffer at pH 2 at room temperature after 3 days
[6] = Solubility of the compound in phosphate buffer at pH 7 at room temperature after 3 days
P2X purinoceptor 7 [7] = biological target: T4, P2X purinoceptor 7 (Homo sapiens, UniProt Q99572); assay: Antagonist activity at recombinant human P2X7 receptor expressed in human 1321N1 cells assessed as inhibition of Bz-ATP-induced Ca2+ flux preincubated for 30 mins followed by agonist addition measured after 180 sec by calcium-4 dye based FLIPR assay; type: cell-based
T4 sequence (Q99572 whole entry): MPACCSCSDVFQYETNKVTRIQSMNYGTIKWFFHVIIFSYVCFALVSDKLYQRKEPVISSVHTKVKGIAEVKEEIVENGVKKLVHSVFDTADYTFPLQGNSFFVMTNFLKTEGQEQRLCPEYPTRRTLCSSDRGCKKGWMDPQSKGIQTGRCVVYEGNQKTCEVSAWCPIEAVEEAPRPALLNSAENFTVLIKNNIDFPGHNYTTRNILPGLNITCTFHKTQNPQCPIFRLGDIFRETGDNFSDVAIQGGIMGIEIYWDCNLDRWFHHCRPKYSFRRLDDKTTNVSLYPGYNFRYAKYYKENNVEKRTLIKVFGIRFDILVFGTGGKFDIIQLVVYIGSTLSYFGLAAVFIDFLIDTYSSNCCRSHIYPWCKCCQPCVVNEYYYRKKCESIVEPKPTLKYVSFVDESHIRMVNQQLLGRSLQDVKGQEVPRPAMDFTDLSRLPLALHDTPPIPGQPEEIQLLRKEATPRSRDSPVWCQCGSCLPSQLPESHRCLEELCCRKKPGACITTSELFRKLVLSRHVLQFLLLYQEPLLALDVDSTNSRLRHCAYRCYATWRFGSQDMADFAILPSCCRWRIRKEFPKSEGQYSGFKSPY

CYP3A4 [8] = biological target: T5, CYP3A4 (Homo sapiens, UniProt P08684); assay: Inhibition of CYP3A4 in human liver microsomes using midazolam as substrate assessed as reduction in 1-OH-midazolam formation at 0.01 uM by LC/MS/MS analysis; settings: probe midazolam
T5 sequence (P08684 whole entry): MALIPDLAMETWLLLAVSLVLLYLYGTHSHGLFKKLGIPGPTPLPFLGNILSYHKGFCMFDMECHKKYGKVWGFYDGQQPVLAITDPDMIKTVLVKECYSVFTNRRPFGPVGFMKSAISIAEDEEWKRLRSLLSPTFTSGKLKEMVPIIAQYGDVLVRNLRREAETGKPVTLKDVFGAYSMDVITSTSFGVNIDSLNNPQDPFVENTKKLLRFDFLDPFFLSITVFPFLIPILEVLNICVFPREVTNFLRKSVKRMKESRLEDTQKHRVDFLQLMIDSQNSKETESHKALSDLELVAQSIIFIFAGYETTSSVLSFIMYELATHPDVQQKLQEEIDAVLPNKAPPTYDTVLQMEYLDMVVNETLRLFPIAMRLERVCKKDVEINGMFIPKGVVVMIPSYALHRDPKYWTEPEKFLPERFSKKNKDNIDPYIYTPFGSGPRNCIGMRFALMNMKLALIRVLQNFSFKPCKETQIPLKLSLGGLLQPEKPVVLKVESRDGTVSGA

CYP3A4 [9] = biological target: T5, CYP3A4; assay: Inhibition of CYP3A4 in human liver microsomes using midazolam as substrate assessed as reduction in 1-OH-midazolam formation at 0.02 uM by LC/MS/MS analysis; settings: probe midazolam
CYP3A4 [10] = biological target: T5, CYP3A4; assay: Inhibition of CYP3A4 in human liver microsomes using midazolam as substrate assessed as reduction in 4-OH-midazolam formation at 0.01 uM by LC/MS/MS analysis; settings: probe midazolam
CYP3A4 [11] = biological target: T5, CYP3A4; assay: Inhibition of CYP3A4 in human liver microsomes using midazolam as substrate assessed as reduction in 4-OH-midazolam formation at 0.02 uM by LC/MS/MS analysis; settings: probe midazolam
P2X purinoceptor 7 [12] = biological target: T6, P2X purinoceptor 7 (Rattus norvegicus, UniProt Q64663); assay: Antagonist activity at recombinant rat P2X7 receptor expressed in human 1321N1 cells assessed as inhibition of Bz-ATP-induced Ca2+ flux preincubated for 30 mins followed by agonist addition measured after 180 sec by calcium-4 dye based FLIPR assay; type: cell-based
T6 sequence (Q64663 whole entry): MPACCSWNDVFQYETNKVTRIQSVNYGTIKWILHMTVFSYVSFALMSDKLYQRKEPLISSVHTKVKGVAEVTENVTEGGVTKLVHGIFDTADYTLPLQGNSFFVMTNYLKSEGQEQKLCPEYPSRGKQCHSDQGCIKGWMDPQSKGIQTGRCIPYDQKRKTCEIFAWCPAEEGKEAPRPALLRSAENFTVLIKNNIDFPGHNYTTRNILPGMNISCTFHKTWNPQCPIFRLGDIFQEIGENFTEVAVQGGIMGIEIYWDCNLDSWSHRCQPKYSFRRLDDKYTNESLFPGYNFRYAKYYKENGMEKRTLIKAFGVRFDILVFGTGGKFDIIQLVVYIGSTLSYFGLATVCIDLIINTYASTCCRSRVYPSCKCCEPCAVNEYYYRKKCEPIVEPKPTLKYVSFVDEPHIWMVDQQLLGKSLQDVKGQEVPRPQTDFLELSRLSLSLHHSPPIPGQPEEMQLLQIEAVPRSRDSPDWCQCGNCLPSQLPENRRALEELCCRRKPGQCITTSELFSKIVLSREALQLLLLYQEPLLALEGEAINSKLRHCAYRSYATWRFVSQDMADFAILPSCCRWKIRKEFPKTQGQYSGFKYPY

in vitro [13] = settings: human, liver microsomes
Description: Extraction ratio in human liver microsomes at 1 uM upto 60 mins in presence of NDPH by LC/MS/MS analysis

in vitro [14] = settings: rat, liver microsomes
Description: Extraction ratio in rat liver microsomes at 1 uM upto 60 mins in presence of NDPH by LC/MS/MS analysis

Row | IC50 (P2X purinoceptor 7 [1]) | fraction unbound at 6 h, 1 µM [2] | fraction unbound at 6 h, 1 µM [3] | solubility at 72 h [5] | solubility at 72 h [6] | IC50 (P2X purinoceptor 7 [7]) | Structure (SMILES) | other results
1 | 20 nM | 0.047 | 0.026 | > 400 µM | 20 µM (≈ 8.42 µg/mL) |  | C[C@@H]1c2ncn(-c3ccccn3)c2CCN1C(=O)c1cccc(C(F)(F)F)c1Cl | IC50 (Cytochrome P450 2D6): > 10000 nM; IC50 (Cytochrome P450 2C19): > 10000 nM; IC50 (Cytochrome P450 1A2): > 10000 nM; IC50 (Cytochrome P450 2C8): > 10000 nM; IC50 (Cytochrome P450 2C9): > 10000 nM; IC50 [4]: > 10000 nM
2 |  |  |  |  |  | 9 nM | CC1c2ncn(-c3ncccc3F)c2CCN1C(=O)c1cccc(C(F)(F)F)c1Cl (configuration not stated) | 
3 | 45 nM | 0.04 | 0.025 | 165 µM (≈ 72.2 µg/mL) | 14 µM (≈ 6.13 µg/mL) |  | C[C@@H]1c2ncn(-c3ccc(F)cc3)c2CCN1C(=O)c1cccc(C(F)(F)F)c1Cl | 
4 | 38 nM | 0.048 | 0.038 | > 400 µM | 4 µM (≈ 1.76 µg/mL) |  | C[C@@H]1c2ncn(-c3ncc(F)cn3)c2CCN1C(=O)c1cccc(C(F)(F)F)c1Cl | IC50 (Cytochrome P450 2C19): 7800 nM; IC50 [4]: > 10000 nM

Further lines, the molecule ahead of its results:

Row | Structure (SMILES) | IC50 (P2X purinoceptor 7 [1]) | fraction unbound at 6 h, 1 µM [2] | fraction unbound at 6 h, 1 µM [3] | solubility at 72 h [5] | solubility at 72 h [6] | IC50 (P2X purinoceptor 7 [7]) | other results
5 | O=C(c1cccc(C(F)(F)F)c1Cl)N1CCc2c(ncn2-c2ccccn2)C1 |  |  |  |  |  | 4 nM | 
6 | CC(=O)N1CCN(c2ccc(OCC3COC(Cn4ccnc4)(c4ccc(Cl)cc4Cl)O3)cc2)CC1 (configuration not stated) [KETOCONAZOLE] |  |  |  |  |  |  | inhibition at 0.01 µM (CYP3A4 [8]): 53%; inhibition at 0.02 µM (CYP3A4 [9]): 70%; inhibition at 0.01 µM (CYP3A4 [10]): 57%; inhibition at 0.02 µM (CYP3A4 [11]): 74%
7 | O=C(c1cccc(C(F)(F)F)c1F)N1CCc2c(ncn2-c2ccc(F)cn2)C1 |  |  |  |  |  |  | IC50 (P2X purinoceptor 7 [12]): > 10000 nM
8 | CC1c2ncn(-c3cnccn3)c2CCN1C(=O)c1cccc(C(F)(F)F)c1Cl (configuration not stated) |  |  |  |  |  | 77 nM | IC50 (P2X purinoceptor 7 [12]): 1230 nM; hepatic extraction ratio at 1 h, 1 µM (in vitro [13]): 0.77; hepatic extraction ratio at 1 h, 1 µM (in vitro [14]): 0.84
9 | O=C(c1cccc(C(F)(F)F)c1Cl)N1CCc2c(ncn2-c2ccccc2)C1 |  |  |  |  |  |  | hepatic extraction ratio at 1 h, 1 µM (in vitro [13]): 0.94; hepatic extraction ratio at 1 h, 1 µM (in vitro [14]): 0.89
10 | O=C(c1cccc(C(F)(F)F)c1Cl)N1CCc2c(ncn2-c2cnccn2)C1 |  |  |  |  |  | 9 nM | 
